According to patent US7049295B2, “Compounds and use thereof to modify transport across cell membranes” (Biotransys Limited, priority 1999, dated 2006):

Key:
HUVECs = assay: Transcellular transport of horse radish peroxidase (HRP) across a cell monolayer on filter; assay type: cell-based, human
Description: Transport of horse radish peroxidase (HRP) across a cellular membrane was measured using the apparatus shown schematically in FIG. 4, with the addition of biovectors (BVS1 etc). The apparatus comprises upper and lower compartments (1, 2 respectively) separated by a filter 3 on which the cells 4 are grown. HRP and biovectors are added to the medium in the upper compartment 1, and HRP is assayed in the lower compartment 2.
Transcellular transport was determined as above for the HUVECs studies. […]

Caco2 cells = assay: Transcellular transport of HRP across monolayers of Caco2 cells; assay type: cell-based; details: Caco2 monolayer, following treatment with 5 μM BVS1 (absence of BVS1: ca 0.001)
Description: Caco2 cells were cultured (passage 17–30) with standard methods and used at ca 21 days. Cells were plated at a density of ca. […] on Transwell® filters (2–4 μm, mean pore size).
The viability of cells for transport was assessed on the basis of the transcellular electrical resistance and values […] were assessed as viable.
Transcellular transport was determined as above for the HUVECs studies. In the absence of BVS1 transcellular transport was determined to be ca 0.001 nM min^−1.

[1] = tested on: receptor isolated from the HUVECS plasma membrane (albumin receptor protein); assay: Interaction with purified isolated receptor reconstituted into FPE-labelled artificial membranes; assay type: binding, human
From the text: (§1) The following Examples illustrate the behaviour of various peptides and other molecules that promote transcellular transport of therapeutic molecules etc. These studies make use of techniques that show the interactions of molecules with receptors and cell membranes. […] The underlying theory and application of this technique is outlined in: • Wall, J., Ayoub, F. & O'Shea. P. (1995) J. Cell Sci. 108, 2673–2682 • Cladera, J. and O'Shea, P. (1998) Biophys. J. 74, 2434–2442 • Cladera, J., Martin, I., Ruysschaert, J. M. and O'Shea, P. (1999) J. Biol. Chem. 274, 29951–29959 the teaching of all of which is incorporated herein by reference.
At the arrows, 5 μM BVS1 was added. Two separate experiments are shown and offset in the time dimension for clarity.

[2] = tested on: receptor located in human umbilical vein endothelial cells (HUVECS); assay: Interaction of designer peptides with FPE-labelled human cells possessing membrane receptor (fluorescence); assay type: binding
From the text: as §1
Human umbilical endothelial cells were labelled with FPE and challenged with the indicated amounts of BVS1 peptides. […] Fluorescence was recorded at 518 nm after excitation at 490 nm.
Two separate experiments are shown and offset in the time dimension for clarity. Peptides were added as indicated by the arrows. The BVS1 peptide was added in both experiments. In the second trace, however, addition of BVS1 was preceded by the addition of 300 nM IL-8.

[3] = +5 μM biovector, over baseline 0.003 nM/min^−1

AGIGALFLGFLGAAG [BVS16]
Facilitated transport (HUVECs; [3]): 9 X Fold

AVGIGALFLGFLGAAG [BVS1]
Facilitated transport (HUVECs; +5 μM PSNU then +5 μM BVS1): 3/0 | Facilitated transport (HUVECs; [3]): 15 X Fold | transcellular transport (Caco2 cells): 0.02 nM/min | binding to reconstituted isolated receptor (FPE fluorescence increase) ([1]; 5 μM BVS1): clearly binds to a receptor | binding to reconstituted isolated receptor after prior addition of human serum albumin ([1]; 5 μM BVS1 preceded by 5 μM human serum albumin): unable to bind | binding to receptor (FPE fluorescence) ([2]; HUVECS labelled with FPE): clearly binds to a receptor | binding to receptor after prior addition of IL-8 ([2]; addition of BVS1 preceded by 300 nM IL-8): unable to bind

GVFVLGFLGFLATAGS [BVS9]
Facilitated transport (HUVECs; [3]): 7 X Fold

GVFVLGLFGFLA [BVS5]
Facilitated transport (HUVECs; [3]): 22 X Fold

interleukin-8 [IL-8]
binding of IL-8 to the receptor targeted by BVS1 ([2]; 300 nM IL-8): appears to bind

polysulfonylnaphthylurea [PSNU, reference compound]
Facilitated transport (HUVECs; [3]): 3 X Fold | interaction with reconstituted albumin receptor protein (FPE) ([1]; 2 μM PSNU): interactions take place
